22 compounds from patent publication US9464081B2, “Pyrrolidine derivatives and their use as complement pathway modulators” (priority 2012, dated 2016) can be followed below.

One may read the IC50 as the midpoint of a concentration-inhibition curve.

Chain of Recombinant human factor D (P00746 26-253): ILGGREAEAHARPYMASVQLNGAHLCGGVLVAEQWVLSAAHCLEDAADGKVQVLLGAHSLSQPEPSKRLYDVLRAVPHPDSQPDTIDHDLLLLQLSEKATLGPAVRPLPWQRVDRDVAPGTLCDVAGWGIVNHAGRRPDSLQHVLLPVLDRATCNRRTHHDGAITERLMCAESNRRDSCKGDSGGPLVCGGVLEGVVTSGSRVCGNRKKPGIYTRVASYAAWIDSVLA

This test concerns the target Recombinant human factor D (Homo sapiens (Human), UniProt P00746). The test can be described thus: Human Complement Factor D Assay: Method 1. It counts as biochemical. The settings on record: 10 nM recombinant human factor D, substrate Z-Lys-thiobenzyl, fluorescence readout, read-out: IC50 Factor D inhibition. The protocol:
Human Complement Factor D Assay: Method 1
Recombinant human factor D (expressed in E. coli and purified using standard methods) at 10 nM concentration is incubated with test compound at various concentrations for 1 hour at room temperature in 0.1 M Hepes buffer, pH 7.5, containing 1 mM MgCl2, 1 M NaCl and 0.05% CHAPS. A synthetic substrate Z-Lys-thiobenzyl and 2,4-dinitrobenzenesulfonyl-fluoresceine are added to final concentrations of 200 μM and 25 μM, respectively. The increase in fluorescence is recorded at excitation of 485 nm and emission at 535 nm in a microplate spectrofluorimeter. IC50 values are calculated from percentage of inhibition of complement factor D-activity as a function of test compound concentration.
Factor D Inhibition Data Using Method 1 to Determine the IC50s.
As for `CC(C)=C(F)CNC(=O)[C@@H]1C[C@H]2C[C@H]2N1C(=O)Cn1nc(C(N)=O)c2ccc(Cl)cc21` [Example 1, 6-Chloro-1-{2-[(1R,3S,5R)-3-(2-fluoro-3-methyl-but-2-enylcarbamoyl)-2-aza-bicyclo[3.1.0]hex-2-yl]-2-oxo-ethyl}-1H-indazole-3-carboxylic acid amide], the IC50 is 33 nM.
In the case of `CC(C)=C(F)CNC(=O)[C@@H]1C[C@H]2C[C@H]2N1C(=O)Cn1nc(C(N)=O)c2ccccc21` [Example 2, 1-{2-[(1R,3S,5R)-3-(2-Fluoro-3-methyl-but-2-enylcarbamoyl)-2-aza-bicyclo[3.1.0]hex-2-yl]-2-oxo-thyl}-1H-indazole-3-carboxylic acid amide], the IC50 came out at 35 nM.
To `CC(C)=C(F)CNC(=O)[C@@H]1C[C@@H](F)CN1C(=O)Cn1nc(C(N)=O)c2ccncc21` [Example 3, 1-{2-[(2S,4R)-4-Fluoro-2-(2-fluoro-3-methyl-but-2-enylcarbamoyl)-pyrrolidin-1-yl]-2-oxo-ethyl}-1H-pyrazolo[3,4-c]pyridine-3-carboxylic acid amide] belongs 255 nM; to `CC(C)=C(F)CNC(=O)[C@@H]1C[C@H]2C[C@H]2N1C(=O)Cn1nc(C(N)=O)c2ccc(C)cc21` [Example 4, 1-{2-[(1R,3S,5R)-3-(2-Fluoro-3-methyl-but-2-enylcarbamoyl)-2-aza-bicyclo[3.1.0]hex-2-yl]-2-oxo-ethyl}-6-methyl-1H-indazole-3-carboxylic acid amide], 450 nM; to `CO[C@H]1[C@@H](C(=O)NCC(F)=C(C)C)N(C(=O)Cn2nc(C(N)=O)c3ccncc32)C[C@@H]1F` [Example 5, 1-{2-[(2S,3S,4S)-4-Fluoro-2-(2-fluoro-3-methyl-but-2-enylcarbamoyl)-3-methoxy-pyrrolidin-1-yl]-2-oxo-ethyl}-1H-pyrazolo[3,4-c]pyridine-3-carboxylic acid amide], 253 nM.
Under `CC(C)=C(F)CNC(=O)[C@@H]1C[C@@]2(CO)C[C@H]2N1C(=O)Cn1nc(C(N)=O)c2ccccc21` [Example 6, 1-{2-[(1R,3S,5S)-3-(2-Fluoro-3-methyl-but-2-enylcarbamoyl)-5-hydroxymethyl-2-aza-bicyclo[3.1.0]hex-2-yl]-2-oxo-ethyl}-1H-indazole-3-carboxylic acid amide] stands 99 nM.
To `CC(C)=C(F)CNC(=O)[C@@H]1C[C@@H](F)CN1C(=O)Cn1nc(C(N)=O)c2ccccc21` [Example 7, 1-{2-[(2S,4R)-4-Fluoro-2-(2-fluoro-3-methyl-but-2-enylcarbamoyl)-pyrrolidin-1-yl]-2-oxo-ethyl}-1H-indazole-3-carboxylic acid amide] belongs 56 nM; to `CO[C@H]1[C@@H](C(=O)NCC(F)=C(C)C)N(C(=O)Cn2nc(C(N)=O)c3ccccc32)C[C@@H]1F` [Example 8, 1-{2-[(2S,3S,4S)-4-Fluoro-2-(2-fluoro-3-methyl-but-2-enylcarbamoyl)-3-methoxy-pyrrolidin-1-yl]-2-oxo-ethyl}-1H-indazole-3-carboxylic acid amide], 59 nM.
As to `CC(C)=C(F)CNC(=O)[C@@H]1C[C@H]2C[C@H]2N1C(=O)Cn1nc(C(N)=O)c2cc(C)nc(C)c21` [Example 9, 1-{2-[(1R,3S,5R)-3-(2-Fluoro-3-methyl-but-2-enylcarbamoyl)-2-aza-bicyclo[3.1.0]hex-2-yl]-2-oxo-ethyl}-5,7-dimethyl-1H-pyrazolo[3,4-c]pyridine-3-carboxylic acid amide], the IC50 worked out at 356 nM.
For the compound `CC(C)=C(F)CNC(=O)[C@@H]1C[C@H]2C[C@H]2N1C(=O)Cn1nc(C(N)=O)c2ccncc21` [Example 10, 1-{2-[(1R,3S,5R)-3-(2-Fluoro-3-methyl-but-2-enylcarbamoyl)-2-aza-bicyclo[3.1.0]hex-2-yl]-2-oxo-ethyl}-1H-pyrazolo[3,4-c]pyridine-3-carboxylic acid amide], the IC50 stood at 78 nM.
Under `CC(=O)c1nn(CC(=O)N2[C@@H]3C[C@@H]3C[C@H]2C(=O)NCC(F)=C(C)C)c2ccccc12` [Example 11, (1R,3S,5R)-2-[2-(3-Acetyl-indazol-1-yl)-acetyl]-2-aza-bicyclo[3.1.0]hexane-3-carboxylic acid (2-fluoro-3-methyl-but-2-enyl)-amide] stands 19 nM; under `CC(C)=C(F)CNC(=O)[C@@H]1C[C@H]2C[C@H]2N1C(=O)Cn1nc(C(N)=O)c2cc(C)ncc21` [Example 12, 1-{2-[(1R,3S,5R)-3-(2-Fluoro-3-methyl-but-2-enylcarbamoyl)-2-aza-bicyclo[3.1.0]hex-2-yl]-2-oxo-ethyl}-5-methyl-1H-pyrazolo[3,4-c]pyridine-3-carboxylic acid amide], 74 nM; under `CC(=O)c1nn(CC(=O)N2[C@@H]3C[C@@H]3C[C@H]2C(=O)NCC(F)=C(C)C)c2cnccc12` [Example 13, (1R,3S,5R)-2-[2-(3-Acetyl-pyrazolo[3,4-c]pyridin-1-yl)-acetyl]-2-aza-bicyclo[3.1.0]hexane-3-carboxylic acid (2-fluoro-3-methyl-but-2-enyl)-amide], 37 nM.
As to `CC(C)=C(F)CNC(=O)[C@@H]1C[C@H]2C[C@H]2N1C(=O)Cn1nc(C(N)=O)c2ccnc(C)c21` [Example 14, 1-{2-[(1R,3S,5R)-3-(2-Fluoro-3-methyl-but-2-enylcarbamoyl)-2-aza-bicyclo[3.1.0]hex-2-yl]-2-oxo-ethyl}-7-methyl-1H-pyrazolo[3,4-c]pyridine-3-carboxylic acid amide], the IC50 was 63 nM.
For `CCc1cc2c(C(N)=O)nn(CC(=O)N3[C@@H]4C[C@@H]4C[C@H]3C(=O)NCC(F)=C(C)C)c2cn1` [Example 15, 5-Ethyl-1-{2-[(1R,3S,5R)-3-(2-fluoro-3-methyl-but-2-enylcarbamoyl)-2-aza-bicyclo[3.1.0]hex-2-yl]-2-oxo-ethyl}-1H-pyrazolo[3,4-c]pyridine-3-carboxylic acid amide], the IC50 stood at 43 nM.
In the case of `CC(=O)c1nn(CC(=O)N2[C@@H]3C[C@@H]3C[C@H]2C(=O)NCC(F)=C(C)C)c2ccc(OCc3ncccn3)cc12` [Example 16, (1R,3S,5R)-2-{2-[3-Acetyl-5-(pyrimidin-2-ylmethoxy)-indazol-1-yl]-acetyl}-2-aza-bicyclo[3.1.0]hexane-3-carboxylic acid (2-fluoro-3-methyl-but-2-enyl)-amide], the IC50 came out at 7 nM.
`NC(=O)c1nn(CC(=O)N2[C@@H]3C[C@@H]3C[C@H]2C(=O)NCC(F)=C2CCCC2)c2ccccc12` [Example 17, 1-{2-[(1R,3S,5R)-3-(2-Cyclopentylidene-2-fluoro-ethylcarbamoyl)-2-aza-bicyclo[3.1.0]hex-2-yl]-2-oxo-ethyl}-1H-indazole-3-carboxylic acid amide]: the IC50 is 128 nM.
As to `[2H]C([2H])([2H])C(=C(F)CNC(=O)[C@@H]1C[C@H]2C[C@H]2N1C(=O)Cn1nc(C(N)=O)c2ccccc21)C([2H])([2H])[2H]` [Example 18, 1-{2-[(1R,3S,5R)-3-(2-Fluoro-3-di-(trideutero-methyl)-allylcarbamoyl)-2-aza-bicyclo[3.1.0]hex-2-yl]-2-oxo-ethyl}-1H-indazole-3-carboxylic acid amide], the IC50 was found to be 50 nM.
To `CC(C)=C(F)C(C)NC(=O)[C@@H]1C[C@H]2C[C@H]2N1C(=O)Cn1nc(C(N)=O)c2ccccc21` (stereo partly drawn) [Example 19, 1-{2-[(1R,3S,5R)-3-(2-Fluoro-1,3-dimethyl-but-2-enylcarbamoyl)-2-aza-bicyclo[3.1.0]hex-2-yl]-2-oxo-ethyl}-1H-indazole-3-carboxylic acid amide] belongs 7 nM; to `NC(=O)c1nn(CC(=O)N2[C@@H]3C[C@@H]3C[C@H]2C(=O)NC/C(F)=C/C(F)(F)F)c2ccccc12` [Example 20, 1-(2-oxo-2-((1R,3S,5R)-3-(((Z)-2,4,4,4-tetrafluorobut-2-en-1-yl)carbamoyl)-2-azabicyclo[3.1.0]hexan-2-yl)ethyl)-1H-indazole-3-carboxamide], 90 nM.
Consider `CC(C)=C(F)[C@H](C)NC(=O)[C@@H]1C[C@H]2C[C@H]2N1C(=O)Cn1nc(C(N)=O)c2ccccc21` [Example 21, 1-(2-((1R,3S,5R)-3-((S)-3-fluoro-4-methylpent-3-en-2-ylcarbamoyl)-2-azabicyclo[3.1.0]hexan-2-yl)-2-oxoethyl)-1H-indazole-3-carboxamide], for which the IC50 was found to be 1800 nM.
With `CC(C)=C(F)[C@@H](C)NC(=O)[C@@H]1C[C@H]2C[C@H]2N1C(=O)Cn1nc(C(N)=O)c2ccccc21` [Example 22, 1-(2-((1R,3S,5R)-3-((R)-3-fluoro-4-methylpent-3-en-2-ylcarbamoyl)-2-azabicyclo[3.1.0]hexan-2-yl)-2-oxoethyl)-1H-indazole-3-carboxamide], the IC50 was 6 nM.
